Reference: ChEMBL document CHEMBL1147138 (J Med Chem, 2007)

Tests used:
[1] = molecular target: T1, Kappa-type opioid receptor (Homo sapiens, UniProt P41145); type: functional, cell-based, CHO
Description: Agonist activity at human opioid kappa receptor expressed in CHO cells assessed as stimulation of [35S]GTPgammaS binding

Mu-type opioid receptor [2] = molecular target: T2, Mu-type opioid receptor (Homo sapiens, UniProt P35372)
Description: Agonist activity at human opioid gamma receptor expressed in CHO cells assessed as stimulation of [35S]GTP-gamma-S binding

Mu-type opioid receptor [3] = molecular target: T2, Mu-type opioid receptor; remark: listed apart in the source
Description: Agonist activity at human opioid gamma receptor expressed in CHO cells assessed as inhibition of DAGO-stimulated [35S]GTPgammaS binding

Mu-type opioid receptor [4] = molecular target: T2, Mu-type opioid receptor; experiment: biochemical
Description: Displacement of [3H]DAMGO from human opioid gamma receptor expressed in CHO cells

[5] = molecular target: Delta-type opioid receptor (Homo sapiens, UniProt P41143); experiment: biochemical; type: cell-based, CHO
Description: Displacement of [3H]naltrindole from human opioid delta receptor expressed in CHO cells

[6] = molecular target: T1, Kappa-type opioid receptor; experiment: biochemical; type: cell-based, CHO
Description: Displacement of [3H]U-69593 from human opioid kappa receptor expressed in CHO cells

[7] = molecular target: T1, Kappa-type opioid receptor
Description: Antagonist activity at human opioid kappa receptor expressed in CHO cells assessed as inhibition of U-50488-stimulated [35S]GTP-gamma-S binding

T2 sequence (P35372 whole entry): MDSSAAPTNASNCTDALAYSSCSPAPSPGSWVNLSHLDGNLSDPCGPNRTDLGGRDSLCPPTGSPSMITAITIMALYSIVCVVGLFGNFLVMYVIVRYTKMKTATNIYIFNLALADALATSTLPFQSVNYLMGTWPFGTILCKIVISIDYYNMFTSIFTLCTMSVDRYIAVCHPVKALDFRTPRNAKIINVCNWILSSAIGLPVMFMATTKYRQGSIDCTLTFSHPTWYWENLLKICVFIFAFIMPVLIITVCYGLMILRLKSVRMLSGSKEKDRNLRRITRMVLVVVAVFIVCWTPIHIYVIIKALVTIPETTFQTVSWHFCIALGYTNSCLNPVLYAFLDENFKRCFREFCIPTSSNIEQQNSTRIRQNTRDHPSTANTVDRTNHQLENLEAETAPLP
T1 sequence (P41145 whole entry): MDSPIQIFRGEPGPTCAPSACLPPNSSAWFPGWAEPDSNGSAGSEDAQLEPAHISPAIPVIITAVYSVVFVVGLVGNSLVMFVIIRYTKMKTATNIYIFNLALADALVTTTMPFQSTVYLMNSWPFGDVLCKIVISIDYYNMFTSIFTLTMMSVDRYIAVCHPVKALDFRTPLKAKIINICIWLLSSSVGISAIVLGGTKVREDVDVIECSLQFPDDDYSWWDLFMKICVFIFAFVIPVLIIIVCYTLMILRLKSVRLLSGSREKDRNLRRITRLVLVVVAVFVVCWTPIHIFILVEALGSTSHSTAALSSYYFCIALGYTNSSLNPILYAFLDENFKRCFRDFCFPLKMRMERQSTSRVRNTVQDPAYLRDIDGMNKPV
Sequence of Delta-type opioid receptor (P41143 whole entry): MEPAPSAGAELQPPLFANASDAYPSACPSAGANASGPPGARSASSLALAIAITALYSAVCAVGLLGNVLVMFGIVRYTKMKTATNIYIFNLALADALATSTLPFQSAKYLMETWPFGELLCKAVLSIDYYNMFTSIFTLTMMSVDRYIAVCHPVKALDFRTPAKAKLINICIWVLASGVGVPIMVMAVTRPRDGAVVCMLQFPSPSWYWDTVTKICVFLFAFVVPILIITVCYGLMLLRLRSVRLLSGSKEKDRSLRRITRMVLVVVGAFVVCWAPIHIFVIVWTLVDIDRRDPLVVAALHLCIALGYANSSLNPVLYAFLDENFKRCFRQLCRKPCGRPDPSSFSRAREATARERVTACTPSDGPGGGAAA

O=C(O)CCCCCCCCC(=O)Oc1ccc2c(c1)[C@@]13CCCCC1[C@@H](C2)N(CC1CCC1)CC3 (some centres undefined)
EC50 [1]: 28 nM

C=CCN1CC[C@]23c4c5ccc(OC(=O)CCCCCCCCC(=O)Oc6ccc7c(c6)[C@@]68CCCCC6[C@@H](C7)N(CC6CCC6)CC8)c4O[C@H]2C(=O)CC[C@@]3(O)[C@H]1C5 (some centres undefined)
EC50 (Mu-type opioid receptor [2]): 2 nM
IC50 (Mu-type opioid receptor [3]): 25 nM
Ki (Mu-type opioid receptor [4]): 0.43 nM
EC50 [1]: 1.6 nM
Ki [5]: 39 nM
Ki [6]: 0.13 nM

O=C(CCCCCCCCC(=O)Oc1ccc2c3c1O[C@H]1C(=O)CC[C@@]4(O)[C@@H](C2)N(CC2CC2)CC[C@]314)Oc1ccc2c(c1)[C@@]13CCCCC1[C@@H](C2)N(CC1CCC1)CC3 (some centres undefined)
EC50 (Mu-type opioid receptor [2]): 4.4 nM
IC50 (Mu-type opioid receptor [3]): 160 nM
Ki (Mu-type opioid receptor [4]): 0.29 nM
EC50 [1]: 3.4 nM
Ki [5]: 15 nM
Ki [6]: 0.12 nM

O=C(CCCCCCCCC(=O)Oc1ccc2c3c1O[C@H]1[C@H](O)CC[C@@]4(O)[C@@H](C2)N(CC2CCC2)CC[C@]314)Oc1ccc2c(c1)[C@@]13CCCCC1[C@@H](C2)N(CC1CCC1)CC3 (some centres undefined)
IC50 (Mu-type opioid receptor [3]): 18 nM
Ki (Mu-type opioid receptor [4]): 0.46 nM
IC50 [7]: 600 nM
EC50 [1]: 3.2 nM
Ki [5]: 28 nM
Ki [6]: 0.34 nM
